Earlier results as cited in patent US20210251559A1, “METHODS FOR DIAGNOSING, MONITORING AND TREATING NEUROLOGICAL DISEASES AND DISORDERS” (CuraSen Therapeutics, Inc., priority 2018, published 2021).

Tested on: Ts65Dn mice
Conditions: increasing brain NE levels

N[C@H](C(=O)O)[C@H](O)c1ccc(O)c(O)c1 [L-DOPS, L-threo-3,4-dihydroxyphenylserine]
contextual learning: restored contextual learning
